For assay [1], the system named is CHO-K1 cells transgenic for constitutive SEAP expression. The assay is described as follows: Control mice receiving CHO-K1 cells transgenic for constitutive SEAP expression, phloretin skin lotion. The conditions noted are these: constitutive SEAP implant; skin lotion with 42 mg phloretin (0 mg: 6.2±0.43 U/L). It counts as in vivo, female OF1 mice. The procedure:
CHO-PEACE8 is microencapsulated in coherent alginate-PLL-alginate capsules and implanted subcutaneously into mice. The back of treated mice is partially shaved and vaseline-based skin lotions (200 μL) containing different amounts of phloretin (0-42 mg) are put on every day. […] Control mice receiving CHO-K1 cells transgenic for constitutive SEAP expression are insensitive to any treatment with phloretin-containing skin lotion (0 mg phloretin: 6.2±0.43 U/L; 42 mg phloretin: 6.02±0.58 U/L).
CHO-PEACE8 and CHO-SEAP18 (Fluri D. A., Kemmer C., Daoud-El Baba M., Fussenegger M., 2008, J Control Release 131(3):211-219) are encapsulated in alginate-poly-(L-lysine)-alginate beads (400 μm; 200 cells/capsule) using an Inotech Encapsulator Research IE-50R (Recipharm, Basel, Switzerland) according to the manufacturer's instructions and the following parameters: 0.2 mm nozzle, 20 mL syringe at a flow rate of 405 units, nozzle vibration frequency of 1024 Hz and 900 V for bead dispersion. […] Thereafter, the mice are sacrificed, blood samples collected and SEAP levels are quantified in the serum which is isolated using microtainer SST tube according to the manufacturer's instructions (Beckton Dickinson, Plymouth, UK). […]

Assay [2] addresses TtgA1 (TtgR-VP16) (Pseudomonas putida, UniProt Q9AIU0). The assay can be described thus: PEACE: SEAP expression after transient co-transfection of pMG10 (PTtgR1-SEAP-pA) and pMG11 (PSV40-TtgA1-pA). It counts as cell-based. Also noted: key to SEAP Production: ^a): Undetectable. The conditions noted are these: 48 h. An excerpt: Living in the plant rhizosphere, Pseudomonas putida DOT-T1E has evolved resistance to a variety of plant-derived antimicrobials, which is triggered by phloretin-induced release of TtgR protein from the operator (OTtgR) of its target promoter and subsequent induction of a broadly specific TtgABC efflux pump (Teran W. et al., loc. cit.).
Three different transactivators are designed, harboring either the VP16 (TtgA1; pMG11, TtgR-VP16) (Triezenberg S. J. et al., loc. cit.), the p65 (TtgA2; pMG18, TtgR-p65) (Urlinger S., et al., 2000, Gene 247(1-2):103-110) or the human E2F4 (TtgA3; pMG19, TtgR-E2F4) (Akagi K., Kanai M., Saya H., Kozu T., Berns A., 2001, Nucleic Acids Res 29(4):e23) transactivation domains. pMG11, pMG18 or pMG19 are co-transfected with pMG10 (PTtgR1-SEAP-pA) into CHO-K1, HEK-293 as well as primary human fibroblasts and keratinocytes, and SEAP expression is profiled after 48 h of cultivation in the presence or absence of 50 μM phloretin.
CHO-K1 are transiently (co-)transfected with either pMG10 (PTtgR1-SEAP-pA) and pMG11 (PSV40-TtgA1-pA), to score regulation performance, or with pSEAP2-Control (PSV40-SEAP-pA), to assess compound-related cytotoxicity, and then cultivated for 48 h in medium containing different concentrations (0, 25, 50 μM) of specific flavonoid type compounds (berberine, butylparaben, genistein, luteolin, β-naphthol, naringenin, phloretin, phloridzin or quercetin) before SEAP production is profiled (FIG. 5A).
Wild-type Chinese hamster ovary cells (CHO-K1, ATCC: CCL-61) and their derivatives are cultivated in standard medium: ChoMaster® HTS (Cell Culture Technologies, Gravesano, Switzerland) supplemented with 5% (v/v) fetal calf serum (FCS, PAN Biotech GmbH, Aidenbach, Germany, Cat. No. 3302, Lot No. P251110) and 1% (v/v) penicillin/streptomycin solution (Sigma, St Louis, Mo., USA, Cat. No. P4458). Human embryonic kidney cells (HEK-293, Mitta B., et al., 2002, Nucleic Acids Res 30(21):e113), African green monkey kidney cells (COS-7, ATCC: CRL-1651), baby hamster kidney cells (BHK-21, ATCC: CCL10), human fibrosarcoma cells (HT-1080, ATCC: CCL-121), the human keratinocyte cell line HaCaT (Boukamp P., et al., 1988, J Cell Biol 106(3):761-771) and mouse fibroblasts (NIH/3T3, ATCC: CRL-1658) are cultured in Dulbecco's modified Eagle's medium (DMEM; Invitrogen, Cat. No. 52100-39) supplemented with 10% FCS (v/v) and 1% (v/v) penicillin/streptomycin solution. Primary human foreskin fibroblasts are cultivated in DMEM supplemented with 20% FCS (v/v) and 1% (v/v) penicillin/streptomycin solution and primary human foreskin keratinocytes are cultured in chemically defined serum-free keratinocyte medium (Invitrogen, Cat. No. 10744019). All cell types are cultivated at 37° C. in a 5% CO2-containing humidified atmosphere.

Each structure is given as a SMILES string.

TtgA1 (TtgR-VP16), sequence (Q9AIU0 whole entry, added parts left off): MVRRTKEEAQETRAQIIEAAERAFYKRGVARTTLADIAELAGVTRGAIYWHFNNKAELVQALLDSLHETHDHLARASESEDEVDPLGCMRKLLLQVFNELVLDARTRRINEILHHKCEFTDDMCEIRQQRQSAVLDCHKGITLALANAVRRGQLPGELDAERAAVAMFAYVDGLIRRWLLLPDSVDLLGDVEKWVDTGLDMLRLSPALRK

On to `O=C(CCc1ccc(O)cc1)c1c(O)cc(O)cc1O` [phloretin, 3-[4-hydroxyphenyl]-1-[2,4,6-trihydroxyphenyl]-1-propanone], for which the “SEAP level in control mice” value in assay [1] came out at 6.02±0.58 U/L. In addition, the SEAP Production in assay [2] (BHK-21, 50 μM Phloretin) was 1.5 ± 0.2 U/L; in assay [2] (CHO-K1, phloretin 50 μM), 0.2 ± 0.016 U/L; in assay [2] (COS-7, 50 μM Phloretin) it was “*”; in assay [2] (HEK-293, 50 μM Phloretin) it was 0.2 ± 0.04 U/L; in assay [2] (HEK-293, phloretin 50 μM), 0.2 ± 0.04 U/L; in assay [2] (HT-1080, 50 μM Phloretin) it was “*”. Moreover, the SEAP Production result in assay [2] (HaCaT, 50 μM Phloretin) was “*”; in assay [2] (NIH/3T3, 50 μM Phloretin), “*”; in assay [2] (Primary human fibroblasts, 50 μM Phloretin) it was “*”; in assay [2] (Primary human keratinocytes, 50 μM Phloretin), “*”. Moreover, in assay [2] (CHO-K1, 0, 25, 50 μM), the “PEACE regulation performance (SEAP production)” value is “full transgene repression”. Moreover, the “SEAP expression dose response” value in assay [2] (CHO-K1, phloretin 0-70 μM) is “dose-dependent reduction of SEAP expression up to complete repression”.

These data come from patent US8653046B2, “Controlling transgene expression across the skin” (ETH Zurich, priority 2009, dated 2014).
